According to patent US20260287509A1, “METHOD FOR MEASURING CELLULAR MECHANICS IN AN IN VITRO FIBROSIS MODEL” (National Cheng Kung University, priority 2023, published 2026):

Legend:
NRK-49F cells [1] = experiment: Atomic force microscope measurement of stiffness and morphology of NRK-49F cells and collagen fibers in the in vitro fibrosis model (coaxial AFM/confocal system); type: cell-based, rat
Protocol: (§1) To clearly distinguish the cells from surrounding proteins, the method employs multiple fluorescent proteins for labeling. In this embodiment, rat renal fibroblasts (NRK-49F cells) were transfected to express Lifeact-RFP and cultured on collagen gels conjugated with FITC-labeled type-I collagen. The cultures were divided into a group treated with TGF-β1 and a control group without TGF-β1. TGF-β1 was added to mimic the activation of fibroblasts into myofibroblasts in fibrotic conditions such as kidney fibrosis and keloid, enabling subsequent analysis of cell contraction and collagen fiber interactions.
(§2) In this embodiment, the coaxial microscope system combines a laser-scanning confocal microscope (FV3000, Olympus) with sharp tip probe-equipped atomic-force microscope (BioScope Resolve, Bruker) […]. Before measurement, the spring constant, deflection sensitivity, and position of the probe were calibrated using No-Touch mode in AFM and vision in confocal microscopy.
Additionally, prior to measurement, a hydrophobic material is coated onto the sharp tip probe of the atomic force microscope. This prevents the probe from adhering to collagen fibers during scanning of the sample, thereby maintaining measurement accuracy.
After calibration, the regions of interest can be selected, captured, and measured using the coaxial microscope system. The elastic moduli are calculated from force-distance curves using a modified Sneddon model implemented in Bruker data-analysis software. Collagen fibers and cells are further analyzed for morphology and rigidity using NanoScope Analysis software (v1.9, Bruker).
FIG. 2 schematically illustrates a simplified experimental workflow for selecting the regions of interest and examining the sample using a coaxial microscope system of the laser scanning confocal microscope and the atomic force microscope. FITC-labeled collagen gels are prepared and seeded with Lifeact-RFP-transfected NRK-49F cells. After 24 hours of culture, drugs are added and media are refreshed. The prepared sample is mounted on the coaxial microscope system, the scan area is marked, and the sample is adjusted to the pre-marked area. Subsequently, images are acquired using the coaxial confocal microscope and atomic force microscope. Finally, the fluorescence and morphological images are merged, and the mechanical properties of the cells and collagen fibers are analyzed using software

NRK-49F cells [2] = experiment: Confocal fluorescence imaging of FITC-labeled collagen fibers in NRK-49F cultures (FITC content); type: cell-based, rat; details: after TGF-β1 stimulation vs control; FIG. 3 and FIG. 4 (FITC content)
Protocol: as §1, §2
FIG. 2 schematically illustrates a simplified experimental workflow for selecting the regions of interest and examining the sample using a coaxial microscope system of the laser scanning confocal microscope and the atomic force microscope. […] Finally, the fluorescence and morphological images are merged, and the mechanical properties of the cells and collagen fibers are analyzed using software

[3] = after TGF-β1 treatment vs control, AFM images, figure not shown

## transforming growth factor β1 [TGF-β1]
NRK-49F cells [1]; TGF-β1-treated vs control without TGF-β1, FITC-labeled type-I collagen gel seeded with Lifeact-RFP NRK-49F cells, AFM elastic modulus, FIG. 6
  increase in stiffness of collagen fibers: approximately 6.5 fold
NRK-49F cells [1]; TGF-β1-treated vs control without TGF-β1, Lifeact-RFP NRK-49F cells on collagen gel, AFM elastic modulus, FIG. 6
  increase in stiffness of NRK-49F cells: ~6.7 fold
NRK-49F cells [1]; [3]
  angle between collagen fibers and NRK-49F cells (A): no significant difference
  diameter of collagen fibers (D1): no significant difference
NRK-49F cells [2]
  density of collagen fibers: markedly increased
